From publication PMC9781916, “Antipsychotic- and Anxiolytic-like Properties of a Multimodal Compound JJGW08 in Rodents” (International Journal of Molecular Sciences, 2022)

Assays:
[1] = tested on: 5-HT1A receptors; set-up: method as in doi:10.1016/j.molstruc.2022.134585; settings: cited from earlier work
[2] = tested on: mice; assay: Rotarod test in mice; assay type: in vivo; settings: for Animals That Fell from Rotating Rod: 30 min before test; for Time before Animals Fell: max 60 s, mean ± SD
Description: Mice were trained on the rotarod apparatus (May Commat RR0711, Ankara, Turkey; rod diameter: 2 cm) for 3 consecutive days. During each training session, animals were placed for 3 min on the rotating rod (24 rpm, constant speed) with unlimited trials. The experiment was performed 24 h after the last training session. On the test day, mice were injected with studied compounds and, 30 min later, placed on the rotarod. The criterion of motor impairments was the inability of the animal to remain on the rotating rod for 60 s.

[3] = tested on: mice; assay: Amphetamine-induced hyperlocomotion test in mice; assay type: in vivo; settings: doses 0.3–2.5 mg/kg ip, amphetamine 2.5 mg/kg sc
Description: Locomotor activity was recorded in actometers separately for each mouse. After 30 min of adaptation, the number of crossings of photo beams was measured during 60 min. […] MK-801 (0.2 mg/kg, ip) was administered 15 min before the experiment, while amphetamine (2.5 mg/kg) was administered subcutaneously (sc) 30 min before the experiment. […] Values are expressed as means ± SD, n = 8–10 mice per group. Statistical analysis: one-way ANOVA (Newman–Keuls post hoc), * p < 0.05, ** p < 0.01, *** p < 0.001.
The test was performed according to the method described by Carlsson et al.. The mobility of the animals was measured in actometers, i.e., in plastic Opto M3 cages (22 × 12 × 13 cm) connected to a computer with MultiDevice Software v.1.30 (Columbus Instruments, Columbus, OH, USA). The experimental cages were equipped with infrared sources on one side and sensors receiving the emitted rays on the other side of the cage. The crossing of each beam of infrared rays was classified as motor activity. The animals were placed individually in experimental cages immediately after administration of the tested compound, 30 min before the start of the test, to adapt to the new conditions and exclude the occurrence of hyperactivity caused by the change of the environment. Spontaneous locomotor activity was measured every 5 min for 60 min. Mice received two injections: of the tested compound or reference substance (30 min before the test, ip) and of amphetamine (2.5 mg/kg, 30 min before the test, sc) or MK-801 (0.2 mg/kg, 15 min before the test, ip). Control groups received an injection of saline and amphetamine or MK-801, or two injections of saline, respectively. Olanzapine was used as a reference compound.

[4] = molecular target: human serotonin 5-HT7 receptor (Homo sapiens, UniProt P34969); assay: Functional assay (cAMP, TR-FRET) in CHO-K1 cells, 5-HT7 receptor
Sequence of human serotonin 5-HT7 receptor (P34969 whole entry): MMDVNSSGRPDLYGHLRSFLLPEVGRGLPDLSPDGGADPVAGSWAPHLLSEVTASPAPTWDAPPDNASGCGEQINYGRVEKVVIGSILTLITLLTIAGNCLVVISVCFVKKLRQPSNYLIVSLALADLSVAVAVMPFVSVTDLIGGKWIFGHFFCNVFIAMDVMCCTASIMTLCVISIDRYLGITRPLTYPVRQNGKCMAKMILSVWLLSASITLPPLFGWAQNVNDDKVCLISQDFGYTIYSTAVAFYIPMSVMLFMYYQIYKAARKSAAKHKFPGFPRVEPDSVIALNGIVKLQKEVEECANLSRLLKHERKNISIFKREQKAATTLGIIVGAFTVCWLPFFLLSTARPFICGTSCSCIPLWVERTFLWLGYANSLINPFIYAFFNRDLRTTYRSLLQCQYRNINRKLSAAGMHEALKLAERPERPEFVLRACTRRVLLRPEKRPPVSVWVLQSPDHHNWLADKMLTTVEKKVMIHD
Description: Test and reference compounds were dissolved in DMSO at a concentration of 1 mM. Serial dilutions were prepared in a 96-well microplate in assay buffer, and 8 to 10 concentrations were tested. […] A functional assay based on cells expressing the human 5-HT7 receptor was performed according to the previously described protocol [16, 45]. CHO-K1 cells were transfected with a beta-lactamase (bla) reporter gene under the control of the cyclic AMP response element (CRE) (Life Technologies, Carlsbad, CA, USA).

[5] = tested on: 5-HT2A receptors; set-up: method as in doi:10.1016/j.molstruc.2022.134585; settings: cited from earlier work
[6] = 5-HT7, antagonist mode, 10 nM serotonin as reference agonist

COc1ccccc1N1CCN(CCCCCOc2ccccc2C(N)=O)CC1.Cl [JJGW08, 2-{5-[4-(2-metoksyfenylo)piperazin-1-ylo]pentoxy}benzamide hydrochloride]
affinity (in words) [1]: high affinity | TD50 relative to the lowest antipsychotic-like dose [2]: 121 fold | Animals That Fell from Rotating Rod ([2]; 10 mg/kg ip): 2/8 | Time before Animals Fell ([2]; 10 mg/kg ip): 58 ± 4 s | Animals That Fell from Rotating Rod ([2]; 20 mg/kg ip): 4/8 | Time before Animals Fell ([2]; 20 mg/kg ip): 41 ± 24 s | Animals That Fell from Rotating Rod ([2]; 30 mg/kg ip): 6/8 | Time before Animals Fell ([2]; 30 mg/kg ip): 20 ± 25 s | TD50 ([2]; ip, dose at which 50% of the animals could not stay on the rotating rod): 18 (11–29) mg/kg | reduction of amphetamine-induced hyperlocomotion [3]: 52–82% | Agonist Mode Emax% ([4]; 5-HT7, agonist mode): 1% | Antagonist Mode Emax% [4, 6]: 4% | Antagonist Mode pIC50 ± Range [4, 6]: 6.4 ± 0.1 | antagonistic properties (in words) ([4]; 5-HT7 functional assay): very weak antagonistic properties | Kb ([4]; read-out: Antagonist Mode Kb, 5-HT7, antagonist mode, Cheng equation): 190 nM | affinity (in words) [5]: moderate affinity
